The text below walks through data of patent US20230136562A1, “SPIROUREA DERIVATIVES” (Idorsia Pharmaceuticals Ltd, priority 2020, published 2023).

Like-named read-outs stand apart in the source and are kept apart here.

The experiment concerns primary neuronal cultures from embryonic rat brains. The experiment can be described thus: Rat oscillation assay (FLIPR, neuronal calcium oscillations). Type of experiment: cell-based. The conditions noted are these: Rattus norvegicus. The protocol:
A) Rat Oscillation Assay:
This assay is a functional phenotypic assay designed to mimic epileptic seizures using primary neuronal cultures from embryonic rat brains, which form a functional neuronal network that generate synchronized intracellular calcium concentration oscillations when cultured at high density in 384-well plate. The epileptic phenotype is induced by incubating the neurons in magnesium-free assay buffer, that results in increased probability of NMDA receptor activation, leading to an increased frequency and amplitude of intracellular calcium oscillations. Once neurons are incubated with the calcium indicator dye Fluo-8 AM (Tebu-bio), neuronal calcium oscillations can be monitored in real time using FLIPR® Tetra (fluorometric plate reader, Molecular Devices). With these recordings, the effect of anti-epileptic drugs can be quantified. The anti-epileptic effect of compounds, which activate directly or indirectly the Kv7 channels can be modulated by the Kv7 channel blocker XE-991. The assay was performed as described previously (Pacico N, Mingorance-Le Meur A. New In Vitro Phenotypic Assay for Epilepsy: Fluorescent Measurement of Synchronized Neuronal Calcium Oscillations. PLoS ONE 9(1) 2014) with modifications described hereafter.
Animal care followed standard procedures in accordance with swiss institutional guidelines. Dissociated neuronal cultures were obtained from cerebral cortices of embryonic Wistar rats at embryonic stage E18 (Charles River). The uterine horns were removed by caesarian surgery from deeply anesthetized rats (Isofurane) and sacrificed by decapitation. The embryos were decapitated by closing forceps. The brains were isolated and dissected one by one in ice-cold PBS (Life Technologies) under optical control using a binocular. Meninges, olfactory bulbs, and basal ganglia were removed. Cortical hemispheres (still including the hippocampus) were cut in small pieces with tweezers and placed on ice in pre-chilled Hibernate-E medium (Life technology). The hemispheres were then incubated in 10 mL of Hibernate-E containing 15 U/mL papain (Worthington) for 25 min at 30° C. with gentle mixing every 10 min. Genomic DNA was then digested by prolonging the incubation during 10 min at 37° C. in presence of 4 U/mL rDNase I (Ambion). The obtained suspension was then centrifuged at 800 g for 5 min and the cell pellet was resuspended in 2 mL Hibernate-E and gently dissociated by pipetting up and down 10 times with a plastic Pasteur pipette resulting in a homogenous cell suspension. This suspension was immediately filtered through a 70 µm cell strainer (MACS® SmartStrainer, Miltenyi), collected in 10 mL Hibernate-E and centrifuged at 800 g for 5 min. The cell pellet was resuspended in Neurobasal medium, supplemented with 2% B-27, 0.5 mM Glutamax-I, 100 U/mL penicillin, 100 µg/mL streptomycin (Life Technologies) and diluted at the final concentration of 300′000 cells/mL. One day before plating the cells, 384-well plates were coated with 25 μL/well of 0.1% poly-L-lysine solution (Sigma), incubated overnight at 37° C., washed two times with sterile distilled water and allowed to dry at room temperature for >2 h. The neurons were seeded at a density of 15′000 cells/well in 50 μL/well in a 384-well black, clear-bottomed plates (Corning) and subsequently maintained in an incubator at 37° C., 5% CO2 and 95% humidity for 8 to 10 days. After 3 and 7 days, 40% of media was renewed under sterile conditions.
Protocol Rat Oscillation Assay
Neurons seeded in the assay plates were washed with Hank's balanced salt solution (HBSS) devoid of Ca^2+ and Mg^2+, supplemented with 20 mM HEPES (Life Technologies) and 2 mM CaCl2 (Sigma), pH 7.4 (hereafter called Assay buffer) using a Biotek EL406 plate washer. Neurons were loaded with 1 μM Fluo-8 AM in Assay buffer for 15 min at 37° C., 5% CO2. […]

Where [1] appears, read: 20 min, AUC of fluorescence measured 20 min after compound addition, read-out: FLIPR: IC50 [nM] 20 min.
Setting [2] is: Acute phase, ratio of AUC fluorescence before and after compound addition, read-out: FLIPR: IC50 [nM] acute.

`CC(NC(=O)NC1CC2(CCC2)C1)c1ccc(Cl)c(OCC(F)(F)F)c1` (racemic) [Example 27, (±)-1-{1-[4-Chloro-3-(2,2,2-trifluoro-ethoxy)-phenyl]-ethyl}-3-spiro[3.3]hept-2-yl-urea]: the IC50 reads like this: under setting [1], 169 nM; under setting [2], 278 nM.
The like results for `COc1c(OCC(F)(F)F)cccc1C(C)NC(=O)NC1CC2(CCC2)C1` (racemic) [Example 31, (±)-1-{1-[2-Methoxy-3-(2,2,2-trifluoro-ethoxy)-phenyl]-ethyl}-3-spiro[3.3]hept-2-yl-urea] were, in that order, 25 nM and 20 nM.
For `C[C@H](NC(=O)NC1CC2(CCC2)C1)c1cccc(OCC(F)(F)F)c1` (single isomer, unassigned) [Example 176] the same measures were 4.3 nM and 2.9 nM.
For `COCC(Oc1cc(CNC(=O)NC2CC3(CCC3)C2)ccn1)C(F)(F)F` (racemic) [Example 107, (±)-1-Spiro[3.3]hept-2-yl-3-[2-(2,2,2-trifluoro-1-methoxymethyl-ethoxy)-pyridin-4-ylmethyl]-urea], the IC50 under setting [1] stood at 91 nM and the IC50 under setting [2] stood at 72 nM.
With `NC(=O)C(NC(=O)NC1CC2(CCC2)C1)c1cccc(C(F)(F)F)c1` (racemic) [Example 62, (±)-2-(3-Spiro[3.3]hept-2-yl-ureido)-2-(3-trifluoromethyl-phenyl)-acetamide], the IC50 runs as follows: under setting [1], 65 nM; under setting [2], 50 nM.
In the case of `Cc1nc(OCC(F)(F)F)cc(C(CO)NC(=O)NC2CC3(CC3)C2)n1` (racemic) [Example 123, (±)-1-{2-Hydroxy-1-[2-methyl-6-(2,2,2-trifluoro-ethoxy)-pyrimidin-4-yl]-ethyl}-3-spiro[2.3]hex-5-yl-urea], the IC50 came to 367 nM under setting [1] and 395 nM under setting [2].
Take `C[C@@H](NC(=O)NC1CC2(CCC2)C1)c1cccc(OC(F)F)c1` (single isomer, unassigned) [Example 174]: the IC50 under setting [1] turned out to be 2490 nM and the IC50 under setting [2] is 2870 nM.
Take `CC(NC(=O)NC1CC2(CCC2)C1)c1ccc2c(c1)OC(F)(F)O2` (racemic) [Example 65, (±)-1-[1-(2,2-Difluoro-benzo[1,3]dioxol-5-yl)-ethyl]-3-spiro[3.3]hept-2-yl-urea]: the IC50 under setting [1] amounted to 10 nM and the IC50 under setting [2] turned out to be 6.7 nM.
For `CC(Oc1cc(CNC(=O)NC2CC3(CC3)C2)ncn1)C(F)(F)F` (racemic) [Example 120, (±)-1-Spiro[2.3]hex-5-yl-3-[6-(2,2,2-trifluoro-1-methyl-ethoxy)-pyrimidin-4-ylmethyl]-urea] the same measures were 151 nM and 136 nM.
The like results for `Cc1nc(OCC(F)(F)F)cc(C(C)NC(=O)NC2CC3(CC3)C2)n1` (racemic) [Example 145, (±)-1-{1-[2-Methyl-6-(2,2,2-trifluoro-ethoxy)-pyrimidin-4-yl]-ethyl}-3-spiro[2.3]hex-5-yl-urea] were, in that order, 80 nM and 57 nM.
As for `O=C(NCc1cccc(C(F)(F)F)c1)NC1CC2(C1)CC2(F)F` (stereo not drawn) [Example 3, 1-(1,1-Difluoro-spiro[2.3]hex-5-yl)-3-(3-trifluoromethyl-benzyl)-urea], the IC50 is, setting by setting: under setting [1], 186 nM; under setting [2], 122 nM.
For the compound `O=C(NCc1ccnc(OC(F)(F)F)c1)NC1CC2(CCC2)C1` [Example 96, 1-Spiro[3.3]hept-2-yl-3-(2-trifluoromethoxy-pyridin-4-ylmethyl)-urea], the IC50 under setting [1] turned out to be 61 nM and the IC50 under setting [2] was 82 nM.
Regarding `COCC(NC(=O)NC1CC2(CCC2)C1)c1ccnc(OCC(F)(F)F)c1` (racemic) [Example 92, (±)-1-{2-Methoxy-1-[2-(2,2,2-trifluoro-ethoxy)-pyridin-4-yl]-ethyl}-3-spiro[3.3]hept-2-yl-urea], the IC50 is, setting by setting: under setting [1], 0.8 nM; under setting [2], 1.3 nM.
Consider `COc1c(OCC(F)(F)F)ncnc1C(C)NC(=O)NC1CC2(CC2)C1` (racemic) [Example 152, (±)-1-{1-[5-Methoxy-6-(2,2,2-trifluoro-ethoxy)-pyrimidin-4-yl]-ethyl}-3-spiro[2.3]hex-5-yl-urea], for which the IC50 runs as follows: under setting [1], 532 nM; under setting [2], 520 nM.
For `CC(NC(=O)NC1CC2(CCC2)C1)c1cccc2c1OC(F)(F)O2` (racemic) [Example 47, (±)-1-[1-(2,2-Difluoro-benzo[1,3]dioxol-4-yl)-ethyl]-3-spiro[3.3]hept-2-yl-urea], the IC50 came to 222 nM under setting [1] and 103 nM under setting [2].
Consider `C[C@@H](NC(=O)NC1CC2(CCC2)C1)c1cc(OCC(F)(F)F)ncn1` (single isomer, unassigned) [Example 183], for which the IC50 came to 1990 nM under setting [1] and 1420 nM under setting [2].
The like results for `O=C(NC1CC2(CCC2)C1)NC1(c2ccnc(OCC(F)(F)F)c2)CCOCC1` [Example 49, 1-Spiro[3.3]hept-2-yl-3-{4-[2-(2,2,2-trifluoro-ethoxy)-pyridin-4-yl]-tetrahydro-pyran-4-yl}-urea] were, in that order, 1530 nM and 680 nM.
The like results for `CC(NC(=O)NC1CC2(CCC2)C1)c1cccc(OC(F)(F)F)c1` (stereo not drawn) [Example 119, 1-Spiro[3.3]hept-2-yl-3-[1-(3-trifluoromethoxy-phenyl)-ethyl]-urea] were, in that order, 12 nM and 10 nM.
As to `O=C(NCc1ccc(F)c(C(F)(F)F)c1)NC1CC2(CC2)C1` [Example 148, 1-(4-Fluoro-3-trifluoromethyl-benzyl)-3-spiro[2.3]hex-5-yl-urea], the IC50 is 355 nM under setting [1] and 312 nM under setting [2].
The like results for `COCCOCC(NC(=O)NC1CC2(CCC2)C1)c1cccc(C(F)(F)F)c1` (racemic) [Example 71, (±)-1-[2-(2-Methoxy-ethoxy)-1-(3-trifluoromethyl-phenyl)-ethyl]-3-spiro[3.3]hept-2-yl-urea] were, in that order, 105 nM and 92 nM.
For `N#CC(NC(=O)NC1CC2(CCC2)C1)c1cccc(C(F)(F)F)c1` (racemic) [Example 89, 1-[(±)-Cyano-(3-trifluoromethyl-phenyl)-methyl]-3-spiro[3.3]hept-2-yl-urea] the same measures were 74 nM and 75 nM.
The like results for `CC(C)(O)C(NC(=O)NC1CC2(CCC2)C1)c1cccc(C(F)(F)F)c1` (racemic) [Example 45, (±)-1-[2-Hydroxy-2-methyl-1-(3-trifluoromethyl-phenyl)-propyl]-3-spiro[3.3]hept-2-yl-urea] were, in that order, 628 nM and 549 nM.
On to `O=C(NC1CC2(CCC2)C1)NC1(c2ccnc(OC(F)F)c2)CCC1` [Example 51, 1-[1-(2-Difluoromethoxy-pyridin-4-yl)-cyclobutyl]-3-spiro[3.3]hept-2-yl-urea], for which the IC50 turned out to be 65 nM under setting [1] and 80 nM under setting [2].
The like results for `CC(NC(=O)NC1CC2(CC2)C1)c1cc(OCC(F)(F)F)ncn1` (racemic) [Example 144, (±)-1-Spiro[2.3]hex-5-yl-3-{1-[6-(2,2,2-trifluoro-ethoxy)-pyrimidin-4-yl]-ethyl}-urea] were, in that order, 119 nM and 96 nM.
`CC(NC(=O)NC1CC2(CC2)C1)c1cccc(C(F)(F)F)c1` (racemic) [Example 140, (±)-1-Spiro[2.3]hex-5-yl-3-[1-(3-trifluoromethyl-phenyl)-ethyl]-urea]: the IC50 was found to be 59 nM under setting [1] and 27 nM under setting [2].
For `C[C@H](NC(=O)NC1CC2(CCC2)C1)c1cccc(OC(F)F)c1` (single isomer, unassigned) [Example 173], the IC50 under setting [1] stood at 11 nM and the IC50 under setting [2] was found to be 7 nM.
Regarding `O=C(NCc1ccnc(OCC(F)(F)F)n1)NC1CC2(CCC2)C1` [Example 70, 1-Spiro[3.3]hept-2-yl-3-[2-(2,2,2-trifluoro-ethoxy)-pyrimidin-4-ylmethyl]-urea], the IC50 under setting [1] turned out to be 546 nM and the IC50 under setting [2] amounted to 219 nM.

Usually IC50 stands for the point on the concentration scale where inhibition reaches its midpoint.
